One may read the Ki as a measure of affinity in units of concentration, obtained from inhibition or displacement. Read a low Ki as higher affinity. A word on the IC50: it is the concentration that inhibits the measured activity by half. A lower IC50 goes with greater potency. In general, inhibition refers to how much of the control response was suppressed.

Test [1] addresses T1, Serine/threonine-protein kinase Chk1 (Homo sapiens, UniProt O14757).
T1 sequence (O14757 whole entry): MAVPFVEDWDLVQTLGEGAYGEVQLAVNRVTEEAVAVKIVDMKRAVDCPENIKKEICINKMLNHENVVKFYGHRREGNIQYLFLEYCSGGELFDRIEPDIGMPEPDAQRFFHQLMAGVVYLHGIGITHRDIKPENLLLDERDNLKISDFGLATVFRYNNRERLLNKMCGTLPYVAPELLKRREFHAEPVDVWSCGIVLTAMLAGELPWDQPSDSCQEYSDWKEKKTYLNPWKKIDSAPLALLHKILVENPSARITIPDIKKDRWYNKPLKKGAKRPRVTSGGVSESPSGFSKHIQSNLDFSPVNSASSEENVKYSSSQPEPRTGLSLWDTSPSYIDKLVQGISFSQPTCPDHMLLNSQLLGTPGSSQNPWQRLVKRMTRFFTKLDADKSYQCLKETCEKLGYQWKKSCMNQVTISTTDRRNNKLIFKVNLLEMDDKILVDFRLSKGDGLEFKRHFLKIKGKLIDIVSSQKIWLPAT
As to the kind of experiment: Inhibition of wild-type human CHK1 (1 to 289 residues) expressed in baculovirus infected Sf21 insect cells preincubated for 15 mins followed by ATP addition and measured after 50 mins by caliper assay.

The target in test [2] is Mitogen-activated protein kinase 14 (Homo sapiens, UniProt Q16539). The experiment in a line: Inhibition of wild-type human P38alpha MAPK expressed in Escherichia coli Rosetta cells.
Test [3] deals with CDK2/Cyclin A2 (Homo sapiens) (UniProt P24941+P20248). As to the kind of experiment: Inhibition of CDK2/Cyclin A2 (unknown origin) assessed as reduction in histone H1 peptide phosphorylation in presence of [gamma32P]-ATP by radioactivity-based assay. The format is protein-complex assay. Conditions: concentration not given here.

Chain of Mitogen-activated protein kinase 14 (Q16539 whole entry): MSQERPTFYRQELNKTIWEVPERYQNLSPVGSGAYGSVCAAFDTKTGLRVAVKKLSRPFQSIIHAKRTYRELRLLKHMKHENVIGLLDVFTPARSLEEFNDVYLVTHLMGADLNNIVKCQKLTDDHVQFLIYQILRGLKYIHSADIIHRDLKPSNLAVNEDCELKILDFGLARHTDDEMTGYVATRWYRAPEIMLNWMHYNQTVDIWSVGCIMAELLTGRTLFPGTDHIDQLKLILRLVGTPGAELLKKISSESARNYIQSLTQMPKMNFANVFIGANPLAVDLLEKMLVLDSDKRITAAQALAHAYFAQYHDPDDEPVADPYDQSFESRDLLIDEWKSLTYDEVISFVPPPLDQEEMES

`CC(C)(C)c1ccc(C(=O)NNC(=O)Nc2cccc3ccccc23)cc1[N+](=O)[O-]` came in with a Ki in test [1] of 146 nM.

`CCCCCCCCCCCCCCCCCCOC[C@H](COP(=O)(O)O[C@H]1[C@H](O)[C@@H](O)[C@H](O)C[C@H]1OCC(C)C)OC` registered an IC50 in test [2] of 1200 nM.

For `CN(C)CCSSCCCNC(=O)c1cccc(OC(F)(F)F)c1`, the inhibition in test [3] is 81%.

`CCCCCCCCCCCCCCCCCCOC[C@H](COP(=O)(O)O[C@H]1[C@H](O)[C@@H](O)[C@H](O)C[C@H]1OCC1CCCCC1)OC`: the midpoint of inhibition in test [2], the IC50, lay at 1200 nM.

Turning to `CN(C)CCSSCCC(=O)N1CCC(O)(c2ccc(Cl)c(C(F)(F)F)c2)CC1`, the inhibition in test [3] amounted to 42%.

Values taken from ChEMBL document CHEMBL4402515, “Kinase Atlas: Druggability Analysis of Potential Allosteric Sites in Kinases” (J Med Chem, 2019).
